# Assay results: patent publication US20070213359A1 (ACADIA Pharmaceuticals Inc., priority 2005, published 2007)
# Like-named read-outs stand apart in the source and are kept apart here.
# What was measured:
# [1] = molecular target: Ghrelin receptor (Homo sapiens, UniProt Q92847); test: Receptor Selection and Amplification Technology (R-SAT) assay; format: cell-based; set-up: expressed in transfected cells; host or cells: NIH3T3; details: for IC50: '—' not defined (nd used separately), read-out: RSAT pIC50 (converted); for Emax: read-out: RSAT Eff(%)
# Ghrelin receptor, sequence (Q92847 whole entry): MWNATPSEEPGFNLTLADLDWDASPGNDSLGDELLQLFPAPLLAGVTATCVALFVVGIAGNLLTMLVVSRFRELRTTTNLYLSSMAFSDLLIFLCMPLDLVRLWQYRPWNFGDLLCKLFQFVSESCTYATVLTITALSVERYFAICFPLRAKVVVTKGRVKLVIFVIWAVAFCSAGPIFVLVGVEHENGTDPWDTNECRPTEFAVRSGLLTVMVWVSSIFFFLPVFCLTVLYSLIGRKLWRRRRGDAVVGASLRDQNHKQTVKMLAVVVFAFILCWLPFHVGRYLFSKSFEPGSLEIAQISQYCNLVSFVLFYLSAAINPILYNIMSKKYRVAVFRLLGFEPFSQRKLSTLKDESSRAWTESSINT
# [2] = molecular target: T1, GHSR1a receptor (Homo sapiens, UniProt Q92847); test: 125I-Ghrelin binding assay; details: displacement of 125I-ghrelin (0.053 nM), membranes of HEK293 cells transfected with GHSR1a, Cheng-Prussoff, '—' not defined
# T1 construct: expressed in transfected cells; host or cells: HEK293 (membranes)
# T1 sequence (Q92847 whole entry): as above
# Experimental: Plasmid DNA containing the GHSR1a receptor (12.5 ug/dish) in 0.675 ml DMEM was transfected into the cells by mixing with 180 ul PolyFect, 15 min later mixing in 2.25 ml 10% CS/DMEM, and transferring the mixture into the dish. At 16-18 h post transfection, medium was replaced with 25 ml fresh 10% FCS/1% PSG/DMEM to each dish for another 18-20 h. At approximately 48 hours post-transfection, cells were harvested in ice-cold membrane buffer (20 mM HEPES, 6 mM MgCl2, 1 mM EDTA, pH to 7.2) using a cell scraper, and pelleted by centrifugation.
# Pelleted cells were added to a nitrogen cavitation chamber and 900 bar of pressure applied for 30 min. The pressure was slowly released the cavitated cells collected in 50 ml falcon tubes. The tubes were centrifuged at 1000 rpm, 4° C. for 10 min, and the supernatant collected. This centrifugation and collection was repeated two more times until the supernatant was free of precipitate (membranes are still in suspension). The supernatant was poured into a 50 ml centrifuge tube and centrifuged at 10.000 rpm, 4° C. for 20 min. The supernatant was discarded and the pellet re-suspended in 750 μl membrane binding buffer using a chilled 1 ml syringe with 25G5/8 needle to re-suspend membranes. The protein concentration was determined using the BioRad Protein Assay Dye Reagent according to the manufacturers instructions. The protein concentration was adjusted to 5 mg/ml and aliquots snap-frozed and stored at −80 C until use.
# Membranes were thawed rapidly; diluted with binding buffer (25 mM Hepes+5 mM MgCl2, 1 mM CaCl2, 2.5 mM EDTA and 0.2% BSA) to a protein concentration of 0.8 ug/30 ul and placed on ice. 96-well plates (U-bottom wells) were prepared with serial dilutions (8 doses, 40 ul/w) of the test compounds. Membranes (30 uL/well) were then added, and incubated with test ligands for 30 min at room temperature with shaking. […] Binding was terminated by filtration through GF/B filters (presoaked with 0.1% polyethylenimine) with a Brandel 96-well harvester. The filters were washed with ice-cold binding buffer (150 ml/plate) and allowed to air-dry for 30 min. 50 ul MicroScient-20 cocktail was added to each dried well, the plates were sealed, and counted for 2 min/well using a TopCount scintillation counter (Packard).
# [3] = negative logarithm of ligand concentration causing 50% inhibition of constitutive receptor response, transfected NIH3T3 cells
# [4] = percent inhibition at saturating ligand, normalized to reference ligand Substance P analog = 100%
# [5] = read-out: Binding pKi (converted)
Structure (SMILES),"IC50 [1, 3]","RSAT Eff(%) [1, 4]","Ki [2, 5]",IC50 ([1]; […]),Emax [1],Ki ([2]; Binding pKi),"Emax [1, 4]"
COc1cccc2c(C(C)=O)cn(CCCN3CCCN(Cc4ccccc4Cl)CC3)c12,0.251 nM,128%,10 nM,,,,
COc1cccc2c(C(=O)C3CC3)cn(CCCN3CCCN(Cc4ccc(F)cc4)CC3)c12,,,,1.26 nM,92%,7.94 nM,
COc1cccc2c(C(=O)NCc3cccc(C)c3)cn(CCCN3C4CCC3CC(CC(=O)c3ccccc3)C4)c12 (stereo not drawn),,,,1.58 nM,106%,2 nM,
CCCCC[C@H]1C[C@H]2CC[C@@H](C1)N2CCCn1cc(C(=O)NCc2cccc(C)c2)c2cccc(OC)c21,,,,2 nM,90%,50.1 nM,
COc1cccc2c(C(=O)NCc3cccc(C)c3)cn(CCCN3CCC(c4nc5ccccc5s4)CC3)c12,,,,2.51 nM,94%,63.1 nM,
COc1cccc2c(C(=O)NCc3cccc(C)c3)cn(CCCN3CCC(Oc4ccc(F)cc4)CC3)c12,,,,3.16 nM,81%,100 nM,
COc1cccc2c(C(=O)C3CC3)cn(CCCN3C4CCC3CC(CCc3ccc(Cl)cc3)C4)c12 (stereo not drawn),,,,3.98 nM,103%,20 nM,
COc1cccc2c(C(=O)C3CC3)cn(CCCN3C4CCC3CC(Oc3ccc(Cl)cc3)C4)c12 (stereo not drawn),,,,3.98 nM,86%,158 nM,
CC(=O)c1cn(CCCN2CCCN(CCc3ccccc3)CC2)c2c(Br)cccc12,,,,3.98 nM,98%,79.4 nM,
CCc1cccc2c(C(C)=O)cn(CCCN3C4CCC3CC(CCc3ccccc3)C4)c12 (stereo not drawn),3.98 nM,,126 nM,,103%,,
CC(=O)c1cn(CCCN2CCC(Oc3ccc(Cl)cc3)CC2)c2c(Br)cccc12,3.98 nM,,100 nM,,,,105%
COc1cccc2c(C(=O)NCc3cccc(Cl)c3)cn(CCCN3C4CCC3CC(Oc3ccccc3Cl)C4)c12 (stereo not drawn),3.98 nM,99%,20 nM,,,,
CC(=O)c1cn(CCCN2C3CCC2CC(Oc2ccc(Cl)cc2)C3)c2c(C)cccc12 (stereo not drawn),5.01 nM,,126 nM,,,,99%
CC(=O)c1cn(CCCN2CCC(Oc3ccc(F)cc3)CC2)c2c(C)cccc12,5.01 nM,,200 nM,,,,72%
CC(=O)c1cn(CCCN2CCCN(Cc3ccccc3Cl)CC2)c2c(Br)cccc12,5.01 nM,,10 nM,,,,95%
COc1cccc2c(C(=O)NCc3cccc(C)c3)cn(CCCN3C4CCC3CC(Oc3ccccc3Cl)C4)c12 (stereo not drawn),5.01 nM,121%,20 nM,,,,
COc1cccc2c(C(=O)C3CC3)cn(CCCN3CCN(CCOc4ccc(Cl)cc4)CC3)c12,,,,20 nM,122%,126 nM,
COc1cccc2c(C(=O)NCc3cccc(C)c3)cn(CCCN3CCN(CCOc4ccccc4)CC3)c12,,,,20 nM,89%,7.94 nM,
COc1cccc2c(C(=O)NCC(C)C)cn(CCCN3CCCN(Cc4ccc(F)cc4)CC3)c12,,,,25.1 nM,118%,100 nM,
COc1cccc2c(C(=O)NCc3cccc(C)c3)cn(CCCN3CCN(Cc4ccc(Cl)cc4Cl)CC3)c12,,,,25.1 nM,110%,1000 nM,
COc1cccc2c(C(=O)Cc3ccccc3)cn(CCCN3CCC(CCOc4ccc(Cl)cc4)CC3)c12,,,,25.1 nM,121%,251 nM,
CCCCCC1CC2CCC(C1)N2CCCn1cc(C(C)=O)c2ccccc21 (stereo not drawn),,,,31.6 nM,104%,1580 nM,
COc1cccc2c(C(=O)NCc3cccc(Cl)c3)cn(CCCN3C4CCC3CC(Oc3ccc(F)cc3)C4)c12 (stereo not drawn),,,,39.8 nM,152%,158 nM,
COc1ccc2[nH]c3c(c2c1)CCN(CCCn1cc(C(C)=O)c2cccc(OC)c21)C3,,,,50.1 nM,,1000 nM,123%
COc1cccc2c(C(C)=O)cn(CCCN3C4CCC3CC(OCC3CC3)C4)c12 (stereo not drawn),,,,50.1 nM,113%,1580 nM,

Structure (SMILES),"IC50 [1, 3]","RSAT Eff(%) [1, 4]","Ki [2, 5]",IC50 ([1]; […]),Emax [1],Ki ([2]; Binding pKi),"Emax [1, 4]"
COc1cccc2c(C(=O)C3CC3)cn(CCCN3CCC(Oc4ccccc4Cl)CC3)c12,,,,50.1 nM,102%,3160 nM,
COc1cccc2c(C(=O)NCc3cccc(Cl)c3)cn(CCCN3CCC(Oc4ccc(Cl)cc4)CC3)c12,,,,50.1 nM,123%,631 nM,
CCCCC[C@H]1C[C@H]2CC[C@@H](C1)N2CCCn1cc(C(=O)NCc2cccc(Cl)c2)c2cccc(OC)c21,,,,50.1 nM,123%,200 nM,
COc1cccc2c(C(=O)NCc3cccc(Cl)c3)cn(CCCN3[C@@H]4CC[C@H]3C[C@@H](CC(=O)c3ccccc3)C4)c12,,,,50.1 nM,111%,63.1 nM,
COc1cccc2c(C(=O)NCc3cccc(Cl)c3)cn(CCCN3CCN(CCOc4ccccc4)CC3)c12,,,,79.4 nM,101%,6.31 nM,
COc1cccc2c(C(=O)NCc3cccc(C)c3)cn(CCCN3CCC(c4nc(-c5cccnc5)no4)CC3)c12,,,,79.4 nM,97%,158 nM,
COc1cccc2c(C(=O)NCc3cccc(Cl)c3)cn(CCCN3CCC(c4nc5ccccc5s4)CC3)c12,,,,79.4 nM,112%,251 nM,
COc1cccc2c(C(=O)NCc3cccc(Cl)c3)cn(CCCN3C4CCC3CC(CC(=O)c3ccccc3)C4)c12 (stereo not drawn),,,,79.4 nM,104%,200 nM,
COc1cccc2c(C(=O)NCC(C)C)cn(CCCN3CCCN(CCc4ccccc4)CC3)c12,,,,100 nM,114%,794 nM,
CCCCC[C@H]1C[C@H]2CC[C@@H](C1)N2CCCn1cc(C(C)=O)c2ccccc21,,,,100 nM,118%,2510 nM,
CCCOC1CCN(CCCn2cc(C(=O)CC)c3cc(Br)ccc32)CC1,,,,158 nM,90%,10000 nM,
COc1cccc2c(C(=O)NCc3cccc(Cl)c3)cn(CCCNCCOc3ccccc3)c12,,,,251 nM,120%,39.8 nM,
COc1cccc2c(C(=O)NCc3cccc(Cl)c3)cn(CCCN3CCN(CCOc4ccc(Cl)cc4)CC3)c12,,,,251 nM,104%,15.8 nM,
Cc1cccc(CNC(=O)c2cn(CCCN3C4CCC3CC(CCc3ccccc3)C4)c3ccccc23)c1 (stereo not drawn),,,,316 nM,108%,631 nM,
CC(=O)c1cn(CCCN2[C@@H]3CC[C@H]2C[C@@H](Oc2ccc(Cl)cc2)C3)c2ccccc12,,,,398 nM,107%,7940 nM,
COc1cccc2c(C(=O)NCc3cccc(C)c3)cn(CCCNC3Cc4ccccc4C3)c12,,,,398 nM,84%,79.4 nM,
COc1cccc2c(C(=O)NCc3cccc(C)c3)cn(CCCN3CCN(CCOc4ccc(Cl)cc4)CC3)c12,,,,501 nM,79%,126 nM,
COc1cccc2c(C(=O)NCc3cccc(Cl)c3)cn(CCCNC3Cc4ccccc4C3)c12,,,,794 nM,133%,63.1 nM,
COc1cccc2c(C(=O)c3ccccc3)cn(CCCN3CCN(CCOc4ccc(Cl)cc4)CC3)c12,,,,1000 nM,66%,126 nM,
COc1cccc2c(C(=O)NCc3cccc(C)c3)cn(CCCNCCOc3ccccc3)c12,,,,,52%,100 nM,
COc1cccc2c(C(=O)NCC(C)C)cn(CCCN3CCC(CCOc4ccc(Cl)cc4)CC3)c12,,,,,45%,158 nM,
COc1cccc2c(C(=O)NCc3cccc(Cl)c3)cn(CCCN3CCC(CCOc4ccc(Cl)cc4)CC3)c12,,,,,46%,251 nM,
CC(=O)c1c(C)n(CCCN2CCC(Oc3cccc(Cl)c3)CC2)c2c(Br)cccc12,,,631 nM,,,,35%
CC(=O)c1cn(CCCN2CCCC(Cc3ccccc3Cl)C2)c2c(C#N)cccc12 (stereo not drawn),,,794 nM,,,,22%
CC(=O)c1c(C)n(CCCN2C3CCC2CC(Oc2ccc(F)cc2)C3)c2c(Br)cccc12 (stereo not drawn),,,1580 nM,,,,1%
